{"source": "patent US8343993B2", "about": "“Hydroxyalkyl substituted imidazonaphthyridines” (3M Innovative Properties Company, priority 2005, dated 2013)", "key": {"[1]": {"test_system": "IFN-α", "test": "Cytokine induction in human cells (PBMC): IFN-α secreted into culture media, ELISA", "type": "cell-based", "settings": "30-0.014 μM, lowest concentration inducing over 20 pg/mL, median where several experiments, read-out: Minimum Effective Concentration IFN", "from_the_text": "(§1) An in vitro human blood cell system is used to assess cytokine induction. Activity is based on the measurement of interferon (α) and tumor necrosis factor (α) (IFN-α, and TNF-α, respectively) secreted into culture media as described by Testerman et. al. in “Cytokine Induction by the Immunomodulators Imiquimod and S-27609”, Journal of Leukocyte Biology, 58, 365-372 (September, 1995).\n(§2) Whole blood from healthy human donors is collected by venipuncture into vacutainer tubes or syringes containing EDTA. Peripheral blood mononuclear cells (PBMC) are separated from whole blood by density gradient centrifugation using HISTOPAQUE-1077 (Sigma, St. Louis, Mo.) or Ficoll-Paque Plus (Amersham Biosciences Piscataway, N.J.). Blood is diluted 1:1 with Dulbecco's Phosphate Buffered Saline (DPBS) or Hank's Balanced Salts Solution (HBSS). Alternately, whole blood is placed in Accuspin (Sigma) or LeucoSep (Greiner Bio-One, Inc., Longwood Fla.) centrifuge frit tubes containing density gradient medium. The PBMC layer is collected and washed twice with DPBS or HBSS and re-suspended at 4×10^6 cells/mL in RPMI complete. The PBMC suspension is added to 96 well flat bottom sterile tissue culture plates containing an equal volume of RPMI complete media containing test compound.\n(§3) The compounds are solubilized in dimethyl sulfoxide (DMSO). The DMSO concentration should not exceed a final concentration of 1% for addition to the culture wells. The compounds are generally tested at concentrations ranging from 30-0.014 μM. Controls include cell samples with media only, cell samples with DMSO only (no compound), and cell samples with reference compound.\n(§4) The solution of test compound is added at 60 μM to the first well containing RPMI complete and serial 3 fold dilutions are made in the wells. The PBMC suspension is then added to the wells in an equal volume, bringing the test compound concentrations to the desired range (usually 30-0.014 μM). The final concentration of PBMC suspension is 2×10^6 cells/mL. The plates are covered with sterile plastic lids, mixed gently and then incubated for 18 to 24 hours at 37° C. in a 5% carbon dioxide atmosphere.\n(§5) Following incubation the plates are centrifuged for 10 minutes at 1000 rpm (approximately 200×g) at 4° C. The cell-free culture supernatant is removed and transferred to sterile polypropylene tubes. Samples are maintained at −30 to −70° C. until analysis. The samples are analyzed for IFN-α by ELISA and for TNF-α by IGEN/BioVeris Assay.\nIFN-α concentration is determined with a human multi-subtype colorimetric sandwich ELISA (Catalog Number 41105) from PBL Biomedical Laboratories, Piscataway, N.J. Results are expressed in pg/mL.\nAnalysis of the data has two steps. First, the greater of the mean DMSO (DMSO control wells) or the experimental background (usually 20 pg/mL for IFN-α and 40 pg/mL for TNF-α) is subtracted from each reading. If any negative values result from background subtraction, the reading is reported as “*” and is noted as not reliably detectable. In subsequent calculations and statistics, “*” is treated as a zero. Second, all, background subtracted values are multiplied by a single adjustment ratio to decrease experiment to experiment variability. The adjustment ratio is the area of the reference compound in the new experiment divided by the expected area of the reference compound based on the past 61 experiments (unadjusted readings). […] The reference compound used is 2-[4-amino-2-ethoxymethyl-6,7,8,9-tetrahydro-α,α-dimethyl-1H-imidazo[4,5-c]quinolin-1-yl]ethanol hydrate (U.S. Pat. No. 5,352,784; Example 91) and the expected area is the sum of the median dose values from the past 61 experiments.\nThe minimum effective concentration is calculated based on the background-subtracted, reference-adjusted results for a given experiment and compound. […]"}, "[2]": {"test_system": "TNF-α", "test": "Cytokine induction in human cells (PBMC): TNF-α secreted into culture media, ORIGEN M-Series immunoassay", "type": "cell-based", "settings": "30-0.014 μM, lowest concentration inducing over 40 pg/mL, median where several experiments, read-out: Minimum Effective Concentration TNF", "from_the_text": "as §1, §2, §3, §4, §5\nThe TNF-α concentration is determined by ORIGEN M-Series Immunoassay and read on an IGEN M-8 analyzer from BioVeris Corporation, formerly known as IGEN International, Gaithersburg, Md. The immunoassay uses a human TNF-α capture and detection antibody pair (Catalog Numbers AHC3419 and AHC3712) from Biosource International, Camarillo, Calif. Results are expressed in pg/mL.\nAnalysis of the data has two steps. First, the greater of the mean DMSO (DMSO control wells) or the experimental background (usually 20 pg/mL for IFN-α and 40 pg/mL for TNF-α) is subtracted from each reading. If any negative values result from background subtraction, the reading is reported as “*” and is noted as not reliably detectable. In subsequent calculations and statistics, “*” is treated as a zero. Second, all, background subtracted values are multiplied by a single adjustment ratio to decrease experiment to experiment variability. The adjustment ratio is the area of the reference compound in the new experiment divided by the expected area of the reference compound based on the past 61 experiments (unadjusted readings). […] The reference compound used is 2-[4-amino-2-ethoxymethyl-6,7,8,9-tetrahydro-α,α-dimethyl-1H-imidazo[4,5-c]quinolin-1-yl]ethanol hydrate (U.S. Pat. No. 5,352,784; Example 91) and the expected area is the sum of the median dose values from the past 61 experiments. […]"}}, "note": "Like-named read-outs stand apart in the source and are kept apart here."}
{"smiles": "CC(C)(Cn1c(CO)nc2c(N)nc3cccnc3c21)NC(=O)C1CCCCC1", "note": "[Example 1, N-[2-(4-Amino-2-hydroxymethyl-1H-imidazo[4,5-c][1,5]naphthyridin-1-yl)-1,1-dimethylethyl]cyclohexanecarboxamide]", "values": [{"measurement": "melting point", "result": "230 to 232", "unit": "°C"}, {"measurement": "minimal effective concentration", "setting": "[1]; Table 4, 18 to 24 hours", "result": 1.11, "unit": "µM"}, {"measurement": "minimal effective concentration", "setting": "[2]; Table 4, 18 to 24 hours", "result": 10, "unit": "µM"}]}
{"smiles": "CC(C)(Cn1c(CO)nc2c(N)nc3cccnc3c21)NS(C)(=O)=O", "note": "[Example 2, N-[2-(4-Amino-2-hydroxymethyl-1H-imidazo[4,5-c][1,5]naphthyridin-1-yl)-1,1-dimethylethyl]methanesulfonamide]", "values": [{"measurement": "melting point", "result": "268 to 271", "unit": "°C"}, {"measurement": "minimal effective concentration", "setting": "[1]; Table 4, 18 to 24 hours", "result": 10, "unit": "µM"}, {"measurement": "minimal effective concentration", "setting": "[2]; Table 4, 18 to 24 hours", "result": 30, "unit": "µM"}]}
{"smiles": "CC(C)(O)Cn1c(CO)nc2c(N)nc3cccnc3c21", "note": "[Example 6, 1-(4-Amino-2-hydroxymethyl-1H-imidazo[4,5-c][1,5]naphthyridin-1-yl)-2-methylpropan-2-ol]", "values": [{"measurement": "melting point", "result": "235 to 237", "unit": "°C"}, {"measurement": "minimal effective concentration", "setting": "[1]; Table 3, 18 to 24 hours", "result": 1.11, "unit": "µM"}, {"measurement": "minimal effective concentration", "setting": "[1]; Table 4, 18 to 24 hours", "result": 1.11, "unit": "µM"}, {"measurement": "minimal effective concentration", "setting": "[2]; Table 3, 18 to 24 hours", "result": 10, "unit": "µM"}, {"measurement": "minimal effective concentration", "setting": "[2]; Table 4, 18 to 24 hours", "result": 10, "unit": "µM"}]}
